pIC50: −log10 of the molar value. Oligonucleotides are written 5' to 3', each unit as a sugar letter and its base; * is a phosphorothioate linkage, no mark a phosphodiester; rarer units and linkages stand in square brackets, end groups in braces. Plain capitals give the bases only. e = 2'-O-(2-methoxyethyl) (MOE); k = constrained ethyl (cEt); [5mC] = 5-methylcytosine; d = 2'-deoxy (DNA)
Tests used:
[1] = tested on: AR mRNA; test: Antisense inhibition of human AR in HuVEC cells, single concentration (electroporation, qRT-PCR RTS3559); type: cell-based
Experimental: Antisense oligonucleotides were designed targeting an AR nucleic acid and were tested for their effects on AR mRNA in vitro. The antisense oligonucleotides were tested in a series of experiments that had similar culture conditions. […] Human primer probe set RTS3559 (forward sequence [NT], designated herein as SEQ ID NO: 9; reverse sequence [NT], designated herein as SEQ ID NO: 10; probe sequence [NT], designated herein as SEQ ID NO: 11) was used to measure mRNA levels. AR mRNA levels were adjusted according to total RNA content, as measured by RIBOGREEN®. […] A total of 155 oligonucleotides were tested. Additional antisense oligonucleotides were designed targeting an AR nucleic acid and were tested for their effects on AR mRNA in vitro. […] Human primer probe set RTS3559 was used to measure mRNA levels. AR mRNA levels were adjusted according to total RNA content, as measured by RIBOGREEN®. […] A total of 82 oligonucleotides were tested. Additional antisense oligonucleotides were designed targeting an AR nucleic acid and were tested for their effects on AR mRNA in vitro. […] Human primer probe set RTS3559 was used to measure mRNA levels. AR mRNA levels were adjusted according to total RNA content, as measured by RIBOGREEN®. […] A total of 40 oligonucleotides were tested. Additional antisense oligonucleotides were designed targeting an AR nucleic acid and were tested for their effects on AR mRNA in vitro. […] Human primer probe set RTS3559 was used to measure mRNA levels. AR mRNA levels were adjusted according to total RNA content, as measured by RIBOGREEN®. […] A total of 75 oligonucleotides were tested. Additional antisense oligonucleotides were designed targeting an AR nucleic acid and were tested for their effects on AR mRNA in vitro. […] Human primer probe set RTS3559 was used to measure mRNA levels. AR mRNA levels were adjusted according to total RNA content, as measured by RIBOGREEN®. […] A total of 616 oligonucleotides were tested. Additional antisense oligonucleotides were designed targeting an AR nucleic acid and were tested for their effects on AR mRNA in vitro. […] Human primer probe set RTS3559 was used to measure mRNA levels. AR mRNA levels were adjusted according to total RNA content, as measured by RIBOGREEN®. […] A total of 385 oligonucleotides were tested.

[2] = tested on: AR mRNA; test: Dose-dependent antisense inhibition of human AR in HuVEC cells (electroporation, qRT-PCR RTS3559, IC50); type: cell-based; settings: HuVEC
Experimental: (§1) After a treatment period of approximately 16 hours, RNA was isolated from the cells and AR mRNA levels were measured by quantitative real-time PCR. Human AR primer probe set RTS3559 was used to measure mRNA levels. AR mRNA levels were adjusted according to total RNA content, as measured by RIBOGREEN®. […] The antisense oligonucleotides were tested in a series of experiments that had similar culture conditions.
as §1, §1, §1, §1
(§2) After a treatment period of approximately 16 hours, RNA was isolated from the cells and AR mRNA levels were measured by quantitative real-time PCR. Human AR primer probe set RTS3559 was used to measure mRNA levels. AR mRNA levels were adjusted according to total RNA content, as measured by RIBOGREEN®.
as §2

[3] = Table 35, electroporation, approximately 16 hours
[4] = Table 30, electroporation, approximately 16 hours
[5] = Table 36, electroporation, approximately 16 hours
[6] = Table 34, electroporation, approximately 16 hours
[7] = 500 nM ASO, electroporation, ~24 h, Table 1

Substance: 584183 (kA*k[5mC]*kA*dG*dG*d[5mC]*dT*d[5mC]*dT*dG*dA*d[5mC]*dT*kA*kG*kG; antisense) [compound 584183]
- % inhibition ([1]; Table 24, 1,000 nM oligonucleotide, electroporation, approximately 24 hours, relative to untreated control): 76%
- percent inhibition of AR, 46.9 nM [2, 3]: 3%
- percent inhibition of AR, 187.5 nM [2, 3]: 41%
- percent inhibition of AR, 750.0 nM [2, 3]: 64%
- percent inhibition of AR, 3000.0 nM [2, 3]: 87%
- pIC50 [2, 3]: 6.51

Substance: 569215 (antisense kT*kG*kG*dT*dT*dG*dA*dT*dT*dT*dA*dA*kT*kG*kG*eT) [compound 569215]
- % inhibition ([1]; 1,000 nM ASO, ~24 h, Table 13): 59%
- percent inhibition of AR ([2]; 31.25 nM, ~16 h, Table 14): 12%
- percent inhibition of AR ([2]; 62.5 nM, ~16 h, Table 14): 2%
- percent inhibition of AR ([2]; 125.0 nM, ~16 h, Table 14): 26%
- percent inhibition of AR ([2]; 500.0 nM, ~16 h, Table 14): 71%
- percent inhibition of AR ([2]; 1000.0 nM, ~16 h, Table 14): 90%
- pIC50 ([2]; ~16 h, Table 14): 6.63

Substance: 583745 (antisense k[5mC]*kG*k[5mC]*dT*d[5mC]*dG*d[5mC]*dG*dG*d[5mC]*d[5mC]*dT*d[5mC]*kT*kG*kG) [compound 583745]
- % inhibition ([1]; 500 nM ASO, ~24 h, Table 18): 40%
- percent inhibition of AR, 46.9 nM [2, 4]: 19%
- percent inhibition of AR, 187.5 nM [2, 4]: 51%
- percent inhibition of AR, 750.0 nM [2, 4]: 68%
- percent inhibition of AR, 3000.0 nM [2, 4]: 77%
- pIC50 [2, 4]: 6.57

Substance: 584495 (kA*kT*kG*dG*dT*dT*dG*dT*d[5mC]*d[5mC]*dT*dG*dT*kA*k[5mC]*kA; antisense) [compound 584495]
- % inhibition ([1]; Table 27, 1,000 nM oligonucleotide, electroporation, approximately 24 hours, relative to untreated control): 58%
- % inhibition ([1]; Table 28, 1,000 nM oligonucleotide, electroporation, approximately 24 hours, relative to untreated control): 53%
- percent inhibition of AR, 46.9 nM [2, 5]: 0%
- percent inhibition of AR, 187.5 nM [2, 5]: 14%
- percent inhibition of AR, 750.0 nM [2, 5]: 55%
- percent inhibition of AR, 3000.0 nM [2, 5]: 74%
- pIC50 [2, 5]: 6.19

Substance: 584139 (kT*k[5mC]*kT*dA*dA*dA*d[5mC]*dA*dT*dG*dA*d[5mC]*dG*kG*kT*kT; antisense) [compound 584139]
- % inhibition ([1]; Table 23, 500 nM oligonucleotide, electroporation, approximately 24 hours, relative to untreated control): 37%
- percent inhibition of AR, 46.9 nM [2, 6]: 13%
- percent inhibition of AR, 187.5 nM [2, 6]: 33%
- percent inhibition of AR, 750.0 nM [2, 6]: 56%
- percent inhibition of AR, 3000.0 nM [2, 6]: 85%
- pIC50 [2, 6]: 6.40

Substance: 585269 (eA*kA*eG*kT*dT*dG*dT*dA*dG*dT*dA*dG*eT*k[5mC]*eG*k[5mC]) [compound 585269]
- % inhibition ([1]; 1,000 nM ASO, ~24 h, Table 13): 73%

Substance: 585264 (kA*kA*kG*dT*dT*dG*dT*dA*dG*dT*kA*kG*kT*e[5mC]*eG*e[5mC]) [compound 585264]
- % inhibition ([1]; 1,000 nM ASO, ~24 h, Table 13): 62%

Substance: 585263 (kA*kA*kG*dT*dT*dG*dT*dA*dG*dT*dA*kG*kT*k[5mC]*eG*e[5mC]) [compound 585263]
- % inhibition ([1]; 1,000 nM ASO, ~24 h, Table 13): 69%

Substance: 579672 (antisense eG*kT*kT*eG*kA*kT*dT*dT*dA*dA*dT*dG*dG*kT*kT*kG) [compound 579672]
- percent inhibition of AR ([2]; 62.5 nM, ~16 h, Table 11): 9%
- percent inhibition of AR ([2]; 125.0 nM, ~16 h, Table 11): 30%
- percent inhibition of AR ([2]; 500.0 nM, ~16 h, Table 11): 72%
- percent inhibition of AR ([2]; 1000.0 nM, ~16 h, Table 11): 86%
- pIC50 ([2]; ~16 h, Table 11): 6.59

Substance: 549345 (kT*k[5mC]*kT*dG*dG*dA*dA*d[5mC]*dA*dG*dA*dT*dT*k[5mC]*kT*kG; antisense) [compound 549345]
- % inhibition [1, 7]: 82%

Substance: 585233 (kA*kG*kT*dT*dG*dT*dA*dG*dT*dA*dG*kT*e[5mC]*eG*e[5mC]*eG) [compound 585233]
- % inhibition ([1]; 1,000 nM ASO, ~24 h, Table 13): 69%

Substance: 549386 (kG*k[5mC]*kT*dT*d[5mC]*dA*dT*d[5mC]*dT*d[5mC]*d[5mC]*dA*d[5mC]*kA*kG*kA; antisense) [compound 549386]
- % inhibition [1, 7]: 77%

Substance: 569214 (antisense kG*kG*kT*dT*dG*dA*dT*dT*dT*dA*dA*dT*kG*kG*kT*eT) [compound 569214]
- percent inhibition of AR ([2]; 62.5 nM, ~16 h, Table 12): 20%
- percent inhibition of AR ([2]; 125.0 nM, ~16 h, Table 12): 26%
- percent inhibition of AR ([2]; 500.0 nM, ~16 h, Table 12): 62%
- percent inhibition of AR ([2]; 1000.0 nM, ~16 h, Table 12): 76%
- pIC50 ([2]; ~16 h, Table 12): 6.58

Substance: 569217 (antisense eG*kT*kT*kG*dA*dT*dT*dT*dA*dA*dT*dG*kG*kT*kT*eG) [compound 569217]
- percent inhibition of AR ([2]; 62.5 nM, ~16 h, Table 12): 34%
- percent inhibition of AR ([2]; 125.0 nM, ~16 h, Table 12): 39%
- percent inhibition of AR ([2]; 500.0 nM, ~16 h, Table 12): 64%
- percent inhibition of AR ([2]; 1000.0 nM, ~16 h, Table 12): 64%
- pIC50 ([2]; ~16 h, Table 12): 6.61

Substance: 585262 (kA*kA*kG*dT*dT*dG*dT*dA*dG*dT*dA*dG*kT*k[5mC]*kG*e[5mC]) [compound 585262]
- % inhibition ([1]; 1,000 nM ASO, ~24 h, Table 13): 77%

Substance: 585268 (kA*eA*kG*eT*dT*dG*dT*dA*dG*dT*dA*dG*eT*k[5mC]*eG*k[5mC]) [compound 585268]
- % inhibition ([1]; 1,000 nM ASO, ~24 h, Table 13): 72%

Substance: 579669 (antisense eG*kG*kT*eT*eG*kA*kT*dT*dT*dA*dA*dT*dG*dG*kT*kT) [compound 579669]
- percent inhibition of AR ([2]; 62.5 nM, ~16 h, Table 11): 24%
- percent inhibition of AR ([2]; 125.0 nM, ~16 h, Table 11): 39%
- percent inhibition of AR ([2]; 500.0 nM, ~16 h, Table 11): 74%
- percent inhibition of AR ([2]; 1000.0 nM, ~16 h, Table 11): 91%
- pIC50 ([2]; ~16 h, Table 11): 6.68

Substance: 585274 (kA*kA*kG*dT*dT*dG*dT*dA*dG*dT*dA*dG*dT*k[5mC]*kG*e[5mC]) [compound 585274]
- % inhibition ([1]; 1,000 nM ASO, ~24 h, Table 13): 65%

Substance: 585271 (eA*kA*kG*dT*dT*dG*dT*dA*dG*dT*dA*dG*dT*k[5mC]*kG*e[5mC]) [compound 585271]
- % inhibition ([1]; 1,000 nM ASO, ~24 h, Table 13): 57%

Substance: 579670 (antisense eT*kG*kA*eT*kT*kT*dA*dA*dT*dG*dG*dT*dT*kG*k[5mC]*kA) [compound 579670]
- percent inhibition of AR ([2]; 62.5 nM, ~16 h, Table 11): 27%
- percent inhibition of AR ([2]; 125.0 nM, ~16 h, Table 11): 28%
- percent inhibition of AR ([2]; 500.0 nM, ~16 h, Table 11): 75%
- percent inhibition of AR ([2]; 1000.0 nM, ~16 h, Table 11): 70%
- pIC50 ([2]; ~16 h, Table 11): 6.63

Substance: 585265 (eA*eA*kG*kT*dT*dG*dT*dA*dG*dT*dA*dG*kT*k[5mC]*eG*e[5mC]) [compound 585265]
- % inhibition ([1]; 1,000 nM ASO, ~24 h, Table 13): 69%

Substance: 585259 (eA*kA*kG*kT*dT*dG*dT*dA*dG*dT*dA*dG*dT*k[5mC]*kG*k[5mC]) [compound 585259]
- % inhibition ([1]; 1,000 nM ASO, ~24 h, Table 13): 71%
